Values quoted from earlier work in US11504326B2, “Lipid emulsion therapy for treating acute cannabinoid intoxication” (priority 2019, dated 2022).
Where two headings read alike, the source gives them in different places.

Key:
[1] = in vivo
psychoactive effects = details: for dose that impairs attention, concentration, short-term memory, and executive functioning: adolescents and adults

In the case of `CCCCCc1cc(O)c2c(c1)OC(C)(C)[C@@H]1CCC(C)=C[C@@H]21` [THC, tetrahydrocannabinol], the protein-bound [1] is listed as 95-99%, the volume of distribution [1] is listed as 2.5 to 3.5 L/kg and the “dose that impairs attention, concentration, short-term memory, and executive functioning” value (psychoactive effects; ingested) is listed as 5 to 20 mg. For the same compound, the “dose at which psychotropic effects occur” value (psychoactive effects; ingested, naive users) was 5 to 20 mg, the “dose that impairs attention, concentration, short-term memory, and executive functioning” value (psychoactive effects; inhaled) was 2 to 3 mg and the “dose sufficient to produce drug effects” value (psychoactive effects; inhaled, naïve user) was 2 to 3 mg.
